Assay results from patent US12202835B2, “Substituted aromatic ring-linked dioxinoquinazolines and dioxinoquinolines as kinase inhibitors” (BEIJING SCITECH-MQ PHARMACEUTICALS LIMITED, priority 2018, dated 2025).
pIC50: −log10 of the molar value.

Legend:
Type in all cases: biochemical
TRKA kinase = TRKA kinase (Homo sapiens (Human), UniProt P04629); assay: Assay of small molecular compounds for inhibiting the activity of TRKA kinase (LANCE TR-FRET)
Summary of the method: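 TRKA (supplied as 2 nM 2× solution) was pre-reacted with compounds for 5 min at room temperature before a 4× ULight-TK peptide/ATP mix (400 nM/40 μM) started the 60-min dark reaction at 1% DMSO. After stop and 60-min detection, TR-FRET was read.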

MER kinase = MER kinase (Homo sapiens (Human), UniProt Q12866); assay: Assay of small molecular compounds for inhibiting the activity of MER kinase (LANCE TR-FRET)
Summary of the method: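 LANCE TR-FRET readout of ULight-poly GT phosphorylation by MER kinase; compound final range 0.042-2500 nM, 3-fold steps, 5 min enzyme preincubation. Reaction 60 min at room temperature in the dark with substrate/ATP (4× at 200 nM/20 μM), 1% DMSO, then stopped and developed 60 min; IC50 by curve fit.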

VEGFR-2 kinase = VEGFR-2 kinase (Homo sapiens (Human), UniProt P35968); assay: Assay of small molecular compounds for inhibiting the activity of VEGFR-2 kinase (LANCE TR-FRET); conditions: read-out: VEGFR2 IC50
Summary of the method: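 LANCE TR-FRET with human VEGFR-2 (2× stock 0.5 nM) preincubated 30 min with compound (final 2500 to 0.042 nM, 11-point 3-fold), then ULight-JAK-1 (Tyr1023) peptide/ATP added (4× stocks 200 nM/40 μM). Reaction 60 min room temperature, 4% DMSO; IC50 from inhibition-rate curve.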

Chain of MER kinase (Q12866 21-999): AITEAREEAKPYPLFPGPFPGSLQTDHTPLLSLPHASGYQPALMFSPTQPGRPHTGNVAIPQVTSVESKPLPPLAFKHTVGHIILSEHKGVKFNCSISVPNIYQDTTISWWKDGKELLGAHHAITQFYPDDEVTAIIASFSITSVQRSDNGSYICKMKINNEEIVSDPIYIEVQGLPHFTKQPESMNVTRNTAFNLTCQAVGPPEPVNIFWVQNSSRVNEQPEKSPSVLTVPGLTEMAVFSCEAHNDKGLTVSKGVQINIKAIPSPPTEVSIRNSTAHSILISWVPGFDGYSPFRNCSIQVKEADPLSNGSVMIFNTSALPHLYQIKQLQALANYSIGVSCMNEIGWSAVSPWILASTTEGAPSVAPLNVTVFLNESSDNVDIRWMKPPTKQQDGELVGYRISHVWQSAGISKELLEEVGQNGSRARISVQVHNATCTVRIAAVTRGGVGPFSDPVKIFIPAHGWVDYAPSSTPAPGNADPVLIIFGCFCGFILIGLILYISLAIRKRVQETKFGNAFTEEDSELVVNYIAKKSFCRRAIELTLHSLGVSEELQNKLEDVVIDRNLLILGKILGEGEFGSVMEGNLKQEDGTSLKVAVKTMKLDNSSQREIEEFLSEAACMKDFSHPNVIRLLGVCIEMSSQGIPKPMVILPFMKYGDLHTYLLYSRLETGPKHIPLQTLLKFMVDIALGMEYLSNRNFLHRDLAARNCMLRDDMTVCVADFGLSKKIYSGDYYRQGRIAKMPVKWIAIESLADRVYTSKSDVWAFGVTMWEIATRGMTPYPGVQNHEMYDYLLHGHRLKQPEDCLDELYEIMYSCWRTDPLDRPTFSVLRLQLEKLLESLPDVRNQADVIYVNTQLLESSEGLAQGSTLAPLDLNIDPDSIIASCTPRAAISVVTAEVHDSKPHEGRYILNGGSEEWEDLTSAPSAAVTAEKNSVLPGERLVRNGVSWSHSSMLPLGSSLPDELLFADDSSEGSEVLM
Chain of VEGFR-2 kinase (P35968 20-1356): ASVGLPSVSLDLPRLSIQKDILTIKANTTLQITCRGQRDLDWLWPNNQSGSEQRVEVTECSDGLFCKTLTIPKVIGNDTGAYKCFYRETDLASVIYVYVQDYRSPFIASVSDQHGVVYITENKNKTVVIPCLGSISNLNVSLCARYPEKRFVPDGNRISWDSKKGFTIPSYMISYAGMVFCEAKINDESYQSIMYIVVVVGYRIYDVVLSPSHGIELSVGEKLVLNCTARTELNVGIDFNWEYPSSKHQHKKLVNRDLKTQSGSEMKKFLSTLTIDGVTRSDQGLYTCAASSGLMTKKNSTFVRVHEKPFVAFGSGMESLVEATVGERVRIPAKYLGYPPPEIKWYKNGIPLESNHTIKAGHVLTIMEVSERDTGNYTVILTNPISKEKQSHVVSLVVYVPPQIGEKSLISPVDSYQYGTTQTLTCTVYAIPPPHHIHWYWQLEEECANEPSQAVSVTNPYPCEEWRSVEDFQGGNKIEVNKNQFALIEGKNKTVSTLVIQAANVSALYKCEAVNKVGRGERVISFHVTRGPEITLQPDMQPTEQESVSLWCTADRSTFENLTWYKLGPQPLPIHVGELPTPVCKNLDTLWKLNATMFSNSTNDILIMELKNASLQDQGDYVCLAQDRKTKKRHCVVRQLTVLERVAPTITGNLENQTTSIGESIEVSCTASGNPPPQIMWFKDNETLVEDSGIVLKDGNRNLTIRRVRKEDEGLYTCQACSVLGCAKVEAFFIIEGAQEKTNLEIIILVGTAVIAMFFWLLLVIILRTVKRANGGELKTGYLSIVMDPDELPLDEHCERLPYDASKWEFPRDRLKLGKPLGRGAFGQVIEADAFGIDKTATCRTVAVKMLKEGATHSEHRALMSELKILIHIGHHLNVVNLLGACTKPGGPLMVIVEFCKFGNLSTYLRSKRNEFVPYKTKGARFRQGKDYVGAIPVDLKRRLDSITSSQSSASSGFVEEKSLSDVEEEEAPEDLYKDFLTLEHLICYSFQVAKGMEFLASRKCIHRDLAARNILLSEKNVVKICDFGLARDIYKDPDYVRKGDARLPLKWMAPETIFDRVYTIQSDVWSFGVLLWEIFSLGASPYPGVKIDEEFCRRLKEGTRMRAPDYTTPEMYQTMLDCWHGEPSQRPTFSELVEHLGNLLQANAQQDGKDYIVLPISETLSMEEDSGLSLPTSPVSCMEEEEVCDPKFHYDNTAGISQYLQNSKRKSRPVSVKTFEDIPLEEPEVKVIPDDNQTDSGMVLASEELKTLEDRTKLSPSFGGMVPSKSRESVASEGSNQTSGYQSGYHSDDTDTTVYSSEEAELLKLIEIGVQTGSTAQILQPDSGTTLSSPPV
Chain of TRKA kinase (P04629 33-796): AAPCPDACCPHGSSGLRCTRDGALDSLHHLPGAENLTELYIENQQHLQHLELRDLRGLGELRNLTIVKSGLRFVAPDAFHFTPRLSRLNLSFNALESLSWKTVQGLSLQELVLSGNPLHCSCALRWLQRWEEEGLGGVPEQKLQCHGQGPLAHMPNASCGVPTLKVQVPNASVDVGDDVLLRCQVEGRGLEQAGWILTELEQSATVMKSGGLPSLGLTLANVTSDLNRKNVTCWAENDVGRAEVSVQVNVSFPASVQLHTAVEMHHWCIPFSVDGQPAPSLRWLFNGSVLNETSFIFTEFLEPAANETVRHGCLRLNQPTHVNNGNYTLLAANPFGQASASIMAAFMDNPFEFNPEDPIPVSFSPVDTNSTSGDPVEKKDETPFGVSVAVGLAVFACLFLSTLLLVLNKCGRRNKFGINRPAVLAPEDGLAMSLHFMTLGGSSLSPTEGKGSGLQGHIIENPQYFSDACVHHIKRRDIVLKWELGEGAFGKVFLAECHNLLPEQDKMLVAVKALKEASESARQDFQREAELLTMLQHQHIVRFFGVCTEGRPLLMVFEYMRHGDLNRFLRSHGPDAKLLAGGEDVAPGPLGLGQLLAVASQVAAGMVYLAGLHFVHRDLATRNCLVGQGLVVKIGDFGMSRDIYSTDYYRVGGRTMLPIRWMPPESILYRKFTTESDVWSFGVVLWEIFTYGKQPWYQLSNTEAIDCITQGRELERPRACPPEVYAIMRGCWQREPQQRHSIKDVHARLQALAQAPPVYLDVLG

Row | pIC50 (TRKA kinase) | pIC50 (MER kinase) | pIC50 (VEGFR-2 kinase) | SMILES
1 | > 7.30 | ≥ 7.30 | 6.30 to 7.30 | O=C(Nc1ccc(Oc2ccnc3ccc4c(c23)OCCO4)c(F)c1)c1cccn(-c2ccc(F)cc2)c1=O [Example 169, N-(4-((2,3-dihydro-[1,4]dioxino[2,3-f]quinolin-10-yl)oxy)-3-fluorophenyl)-1-(4-fluorophenyl)-2-oxo-1,2-dihydropyridine-3-carboxamide]
2 | > 7.30 | ≥ 7.30 | 5.30 to 6.30 | O=C(Nc1ccc(Oc2ccnc3ccc4c(c23)OCCO4)cc1F)c1cccn(-c2ccc(F)cc2)c1=O [Example 170, N-(4-((2,3-dihydro-[1,4]dioxino[2,3-f]quinolin-10-yl)oxy)-2-fluorophenyl)-1-(4-fluorophenyl)-2-oxo-1,2-dihydropyridine-3-carboxamide]
3 | > 7.30 | ≥ 7.30 | 5.30 to 6.30 | CCOc1ccn(-c2ccc(F)cc2)c(=O)c1C(=O)Nc1ccc(Oc2ccnc3ccc4c(c23)OCCO4)cc1F [Example 171, N-(4-((2,3-dihydro-[1,4]dioxino[2,3-f]quinolin-10-yl)oxy)-2-fluorophenyl)-1-(4-fluorophenyl)-4-ethoxy-2-oxo-1,2-dihydropyridine-3-carboxamide]
4 | > 7.30 | ≥ 7.30 | < 5.30 | COc1ccn(-c2ccc(F)cc2)c(=O)c1C(=O)Nc1ccc(Oc2ccnc3ccc4c(c23)OCCO4)cc1F [Example 172, N-(4-((2,3-dihydro-[1,4]dioxino[2,3-f]quinolin-10-yl)oxy)-2-fluorophenyl)-1-(4-fluorophenyl)-4-methoxy-2-oxo-1,2-dihydropyridine-3-carboxamide]

More lines, now with the values behind:

Row | SMILES | pIC50 (TRKA kinase) | pIC50 (MER kinase) | pIC50 (VEGFR-2 kinase)
5 | COc1cc2nccc(Oc3cc(C)c(NC(=O)c4cn(C)c(=O)n(-c5ccc(F)cc5)c4=O)cc3F)c2c2c1OCCO2 [Example 177, N-(5-fluoro-4-((5-methoxy-2,3-dihydro-[1,4]dioxino[2,3-f]quinolin-10-yl)oxy)-2-methylphenyl)-3-(4-fluorophenyl)-1-methyl-2,4-dioxo-1,2,3,4-tetrahydropyrimidine-5-carboxamide] | > 7.30 | ≥ 7.30 | 5.30 to 6.30
6 | COCCOc1cc2nccc(Oc3cc(C)c(NC(=O)c4cn(C)c(=O)n(-c5ccc(F)cc5)c4=O)cc3F)c2c2c1OCCO2 [Example 179, N-(5-fluoro-4-((5-(2-methoxyethoxy)-2,3-dihydro-[1,4]dioxino[2,3-f]quinolin-10-yl)oxy)-2-methylphenyl)-3-(4-fluorophenyl)-1-methyl-2,4-dioxo-1,2,3,4-tetrahydropyrimidine-5-carboxamide] | > 7.30 | ≥ 7.30 | 5.30 to 6.30
